Measured values: ChEMBL document CHEMBL4312024, “Optimization of piperazine-derived ureas privileged structures for effective antiadenovirus agents” (Eur J Med Chem, 2020)
Activity calls are given as the source filed them. The calls are words filed in the database; no cut-off is given here.

Assays:
[1] = test system: Human adenovirus 5; test: Antiviral activity against Human adenovirus 5 infected in HEK293beta5 cells coexpressing GFP assessed as inhibition of plaque formation at 10 uM incubated for 7 days relative to control; type: functional; details: Human mastadenovirus C, 168 h
[2] = Cytotoxicity against human A549 cells assessed as reduction in cell viability incubated for 48 hrs by alamarBlue assay; type: cell-based
[3] = test system: Human adenovirus 5; test: Antiviral activity against Human adenovirus 5 infected in A549 cells assessed as fold reduction in virus yield at 50 uM incubated for 48 hrs by endpoint dilution method relative to control; type: functional
[4] = test system: Human adenovirus 5; test: Antiviral activity against Human adenovirus 5 infected in HEK293beta5 cells coexpressing GFP assessed as inhibition of plaque formation incubated for 7 days; type: functional, organism-based; details: Human mastadenovirus C, 168 h
[5] = test system: Human adenovirus 5; test: Antiviral activity against Human adenovirus 5 infected in A549 cells assessed as nuclear associated viral DNA copies at 50 uM incubated for 45 mins by qRT-PCR analysis; type: functional, organism-based
[6] = test system: Human betaherpesvirus 5; test: Antiviral activity against Human cytomegalovirus infected in MRC5 cells assessed as decrease in viral DNA copies at 50 uM incubated for 72 hrs by qRT-PCR analysis; type: functional, organism-based
[7] = Selectivity Index, ratio of CC50 for human A549 cells to IC50 for Human adenovirus 5 infected in HEK293beta5 cells coexpressing GFP; type: toxicity, cell-based; details: read-out: Ratio CC50/IC50

Compound	inhibition at 10 µM [1]	CC50 at 48 h [2]	further results
CC1CN(C(=O)c2cc3ccccc3o2)CC(C)N1C(=O)Nc1ccccc1[N+](=O)[O-] (stereo not given)	72.2%	–	–
Cc1ccc(NC(=S)N2CCN(C(=O)CC3CCCCC3)CC2c2ccccc2)cc1 (stereo not given)	15%	–	–
CC1CN(C(=O)c2cc3ccccc3o2)CCN1C(=S)Nc1ccc([N+](=O)[O-])cc1 (stereo not given)	100%	20 µM	–
O=C(CC1CCCCC1)N1CCN(C(=O)Nc2ccccc2[N+](=O)[O-])C(c2ccccc2)C1 (stereo not given)	100%	112 µM	fold change (FC) [3]: 15.2; IC50 [4]: 1.4 µM; Activity [5]: Active; Activity [6]: Active; selectivity ratio [7]: 80.1
CC1CN(C(=O)Cc2ccccc2)CCN1C(=S)Nc1ccc(F)cc1 (stereo not given)	100%	26.3 µM	–
CC1CN(C(=O)c2cc3ccccc3o2)CCN1C(=S)Nc1ccc(F)cc1 (stereo not given)	85%	75.4 µM	–
CC1CN(C(=O)CC(C)(C)C)CCN1C(=S)Nc1ccc([N+](=O)[O-])cc1 (stereo not given)	76.2%	–	–
CC1CN(C(=O)c2cc3ccccc3o2)CC(C)N1C(=O)Nc1ccc(Cl)c(C(F)(F)F)c1 (stereo not given)	0%	–	–
CC1CN(C(=O)CC2CCCCC2)CCN1C(=S)Nc1ccc(C(F)(F)F)cc1 (stereo not given)	88.9%	142 µM	–
O=C(CC1CCCCC1)N1CCN(C(=S)Nc2ccc(F)cc2)C(c2ccccc2)C1 (stereo not given)	5%	–	–
N#Cc1ccc(NC(=O)N2CCN(C(=O)c3cc4ccccc4o3)CC2c2ccccc2)cc1 (stereo not given)	–	–	fold change (FC) [3]: 34.5; selectivity ratio [7]: 53.3
CC(C)(C)OC(=O)N1CCN(C(=O)Nc2ccccc2[N+](=O)[O-])CC1	15%	–	–
CC1CN(C(=O)OC(C)(C)C)CCN1C(=S)Nc1ccc([N+](=O)[O-])cc1 (stereo not given)	100%	–	–
CC1CN(C(=O)OC(C)(C)C)CCN1C(=S)Nc1ccc(C(F)(F)F)cc1 (stereo not given)	73.4%	–	–
CC1CN(C(=O)CC2CCCCC2)CCN1C(=S)Nc1ccc(Cl)cc1 (stereo not given)	89.3%	200 µM	–
CC1CN(C(=O)CC2CCCCC2)CCN1C(=S)Nc1cc(C(F)(F)F)cc(C(F)(F)F)c1 (stereo not given)	100%	82.4 µM	–
CC1CN(C(=O)c2cc3ccccc3o2)CC(C)N1C(=O)Nc1cc(C(F)(F)F)ccc1Cl (stereo not given)	0%	–	–
N#Cc1ccc(NC(=S)N2CCN(C(=O)Cc3ccccc3)CC2c2ccccc2)cc1 (stereo not given)	64%	–	–
CC1CN(C(=O)CC(C)(C)C)CCN1C(=S)Nc1ccc(Cl)cc1 (stereo not given)	61.6%	–	–
O=C(Cc1ccccc1)N1CCN(C(=S)Nc2ccc([N+](=O)[O-])cc2)C(c2ccccc2)C1 (stereo not given)	5.5%	–	–
CC1CN(C(=O)CC(C)(C)C)CCN1C(=S)Nc1ccc(C#N)cc1 (stereo not given)	51%	–	–
CC1CN(C(=O)c2cc3ccccc3o2)CCN1C(=S)Nc1ccc(C#N)cc1 (stereo not given)	100%	25.5 µM	–

Compound	inhibition at 10 µM [1]	CC50 at 48 h [2]	further results
CC1CN(C(=O)c2cc3ccccc3o2)CC(C)N1C(=O)Nc1ccc([N+](=O)[O-])cc1 (stereo not given)	12.2%	–	–
O=C(c1cc2ccccc2o1)N1CCN(C(=O)Nc2cc(C(F)(F)F)ccc2Cl)C(c2ccccc2)C1 (stereo not given)	–	–	selectivity ratio [7]: 116
CC(C)(C)OC(=O)N1CCN(C(=S)Nc2ccc(F)cc2)C(c2ccccc2)C1 (stereo not given)	27.5%	–	–
O=C(Nc1ccc([N+](=O)[O-])cc1)N1CCN(C(=O)c2cc3ccccc3o2)CC1	0%	–	–
N#Cc1ccc(NC(=S)N2CCN(C(=O)CC3CCCCC3)CC2c2ccccc2)cc1 (stereo not given)	80%	65.3 µM	–
O=C(c1cc2ccccc2o1)N1CCN(C(=O)Nc2ccccc2[N+](=O)[O-])C(c2ccccc2)C1 (stereo not given)	100%	–	fold change (FC) [3]: 9.9; selectivity ratio [7]: 79
CC1CN(C(=O)CC2CCCCC2)CCN1C(=S)Nc1ccc(C#N)cc1 (stereo not given)	100%	193 µM	fold change (FC) [3]: 9.3; IC50 [4]: 2.5 µM; Activity [5]: Active; selectivity ratio [7]: 77.2
CC(C)(C)OC(=O)N1CCN(C(=O)Nc2ccc([N+](=O)[O-])cc2)C(c2ccccc2)C1 (stereo not given)	–	–	selectivity ratio [7]: 47.3
CC1CN(C(=O)c2cc3ccccc3o2)CC(C)N1C(=O)Nc1ccc(C#N)cc1 (stereo not given)	10%	–	–
COc1ccc(NC(=S)N2CCN(C(=O)CC(C)(C)C)CC2C)cc1 (stereo not given)	58.1%	–	–
COc1ccc(NC(=S)N2CCN(C(=O)CC3CCCCC3)CC2C)cc1 (stereo not given)	25.5%	–	–
CC1CN(C(=O)OC(C)(C)C)CCN1C(=S)Nc1cc(C(F)(F)F)cc(C(F)(F)F)c1 (stereo not given)	11.1%	–	–
O=C(c1cc2ccccc2o1)N1CCN(C(=O)Nc2ccc([N+](=O)[O-])cc2)C(c2ccccc2)C1 (stereo not given)	100%	–	selectivity ratio [7]: 93.5
Nc1ccn(C[C@@H](CO)OCP(=O)(O)O)c(=O)n1.O.O [CIDOFOVIR]	3.51%	50.6 µM	fold change (FC) [3]: 82.5; IC50 [4]: 24.1 µM
CC1CN(C(=O)CC(C)(C)C)CCN1C(=S)Nc1cc(C(F)(F)F)cc(C(F)(F)F)c1 (stereo not given)	4.81%	–	–
O=C(Nc1cc(C(F)(F)F)ccc1Cl)N1CCN(C(=O)Nc2cc(C(F)(F)F)ccc2Cl)C(c2ccccc2)C1 (stereo not given)	90.4%	200 µM	–
COc1ccc(NC(=S)N2CCN(C(=O)Cc3ccccc3)CC2C)cc1 (stereo not given)	88.9%	175 µM	–
CC1CN(C(=O)CC(C)(C)C)CCN1C(=S)Nc1ccc(F)cc1 (stereo not given)	7.5%	–	–
O=C(c1cc2ccccc2o1)N1CCN(C(=O)c2cc3ccccc3o2)CC1	51.5%	–	–
CC(C)(C)CC(=O)N1CCN(C(=S)Nc2cc(C(F)(F)F)cc(C(F)(F)F)c2)C(c2ccccc2)C1 (stereo not given)	100%	91.8 µM	–
CC1CN(C(=O)Cc2ccccc2)CCN1C(=S)Nc1ccc(Cl)cc1 (stereo not given)	84.6%	175 µM	–
COc1ccc(NC(=S)N2CCN(C(=O)OC(C)(C)C)CC2C)cc1 (stereo not given)	36.5%	–	–

Compound	inhibition at 10 µM [1]	CC50 at 48 h [2]	further results
CC1CN(C(=O)OC(C)(C)C)CCN1C(=S)Nc1ccc(C#N)cc1 (stereo not given)	88.9%	175 µM	–
CC1CN(C(=O)CC(C)(C)C)CCN1C(=S)Nc1ccc(C(F)(F)F)cc1 (stereo not given)	36.3%	–	–
O=C(Nc1cc(C(F)(F)F)ccc1Cl)N1CCN(C(=O)Nc2cc(C(F)(F)F)ccc2Cl)CC1	33.9%	–	–
Cc1ccc(NC(=S)N2CCN(C(=O)CC(C)(C)C)CC2C)cc1 (stereo not given)	76.8%	–	–
CC(C)(C)CC(=O)N1CCN(C(=O)Nc2ccc([N+](=O)[O-])cc2)C(c2ccccc2)C1 (stereo not given)	74.4%	72 µM	–
O=C(Cc1ccccc1)N1CCN(C(=O)Nc2cc(C(F)(F)F)ccc2Cl)C(c2ccccc2)C1 (stereo not given)	100%	64.5 µM	–
CC1CN(C(=O)c2cc3ccccc3o2)CCN1C(=S)Nc1ccc(C(F)(F)F)cc1 (stereo not given)	100%	46.3 µM	–
O=C(Nc1ccccc1[N+](=O)[O-])N1CCN(C(=O)c2cc3ccccc3o2)CC1	41.5%	–	–
CC1CN(C(=O)c2cc3ccccc3o2)CC(C)N1C(=O)Nc1ccc(Cl)cc1 (stereo not given)	81.1%	113 µM	–
Cc1ccc(NC(=O)N2C(C)CN(C(=O)c3cc4ccccc4o3)CC2C)cc1 (stereo not given)	0%	–	–
Cc1ccc(NC(=S)N2CCN(C(=O)OC(C)(C)C)CC2C)cc1 (stereo not given)	49.1%	–	–
O=C(Cc1ccccc1)N1CCN(C(=O)Nc2ccc([N+](=O)[O-])cc2)C(c2ccccc2)C1 (stereo not given)	82.6%	174 µM	–
CC1CN(C(=O)CC2CCCCC2)CCN1C(=S)Nc1ccc([N+](=O)[O-])cc1 (stereo not given)	82.6%	148 µM	–
O=C(CC1CCCCC1)N1CCN(C(=O)Nc2ccc([N+](=O)[O-])cc2)C(c2ccccc2)C1 (stereo not given)	98.9%	71.8 µM	–
CC1CN(C(=O)Cc2ccccc2)CCN1C(=S)Nc1ccc(C(F)(F)F)cc1 (stereo not given)	73.4%	–	–
CC1CN(C(=O)OC(C)(C)C)CCN1C(=S)Nc1ccc(Cl)cc1 (stereo not given)	73.4%	–	–
O=C(c1cc2ccccc2o1)N1CCN(C(=O)Nc2ccc(Cl)cc2)C(c2ccccc2)C1 (stereo not given)	–	–	fold change (FC) [3]: 16.9; selectivity ratio [7]: 42.7
CC(C)(C)CC(=O)N1CCN(C(=O)Nc2ccccc2[N+](=O)[O-])C(c2ccccc2)C1 (stereo not given)	100%	63.3 µM	–
O=C(c1cc2ccccc2o1)N1CCN(C(=O)c2cc3ccccc3o2)C(c2ccccc2)C1 (stereo not given)	19.4%	–	–
Cc1ccc(NC(=S)N2CCN(C(=O)Cc3ccccc3)CC2C)cc1 (stereo not given)	92.9%	200 µM	–
